# Earlier results, collected in patent US20230201369A1 (THE TEXAS A&M UNIVERSITY SYSTEM, priority 2020, published 2023).
# Details: estimated
smiles,measurement,value
"C=CCN1CC[C@]23c4c5ccc(O)c4O[C@H]2C(=O)CC[C@@]3(O)[C@H]1C5 [naloxone, 17-Allyl-4,5α-epoxy-3,14-dihydroxymorphinan-6-one]",oral bioavailability,0.9-2%
